The supplement of paper PMC11061612

Tests used:
Crizotinib = compound: C[C@@H](Oc1cc(-c2cnn(C3CCNCC3)c2)cnc1N)c1c(Cl)ccc(F)c1Cl [Crizotinib]; conditions: max 10 µM
Procedure, shortened: (§1)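 Following 24 hours at 37°C and 5% CO2, cancer cell lines in 1536-well plates with 7.5 μl DMEM/F12 or RPMI and 10% FBS were dosed for 72 hours, final DMSO typically being 0.2%. CellTiter-Glo 2.0 luminescence, scaled between blank-well and DMSO-well means, gave the viability readout. Dose responses were fitted to a two-parameter logistic curve with a non-linear mixed effects model, and the single-agent IC50 was derived from this fit.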

AZD5153 = compound: COc1nnc2ccc(N3CCC(c4ccc(OCCN5CCN(C)C(=O)[C@H]5C)cc4)CC3)nn12 [AZD5153]; conditions: max 1 µM
Procedure, shortened: as §1

Palbociclib = compound: CC(=O)c1c(C)c2cnc(Nc3ccc(N4CCNCC4)cn3)nc2n(C2CCCC2)c1=O [Palbociclib]; conditions: max 10 µM
Procedure, shortened: as §1

AZD6738 = compound: C[C@@H]1COCCN1C2=NC(=NC(=C2)C3(CC3)[S@](=N)(=O)C)C4=C5C=CNC5=NC=C4 [AZD6738]; conditions: max 10 µM
Procedure, shortened: as §1

AZD7648 = compound: Cc1cc2ncnn2cc1Nc1ncc2c(n1)n(C1CCOCC1)c(=O)n2C [AZD7648]; conditions: max 10 µM
Procedure, shortened: as §1

AZD4320 = compound: CN(CC[C@H](CSC1=CC=CC=C1)NC2=C(C=C(C=C2)S(=O)(=O)NC(=O)C3=CC=C(C=C3)N4CCC(CC4)[C@H](C5=CC=CC=C5C6=CC=C(C=C6)Cl)O)S(=O)(=O)C(F)(F)F)CCO [AZD4320]; conditions: max 1 µM
Procedure, shortened: as §1

Venetoclax = compound: CC1(C)CCC(CN2CCN(c3ccc(C(=O)NS(=O)(=O)c4ccc(NCC5CCOCC5)c([N+](=O)[O-])c4)c(Oc4cnc5[nH]ccc5c4)c3)CC2)=C(c2ccc(Cl)cc2)C1 [Venetoclax]; conditions: max 1 µM
Procedure, shortened: as §1

AZD0156 = compound: CN(C)CCCOc1ccc(-c2ccc3ncc4c(c3c2)n(C2CCOCC2)c(=O)n4C)cn1 [AZD0156]; conditions: max 3 µM
Procedure, shortened: as §1

[1] = compound: O=C(Nc1ccc2[nH]nc(-c3ccncc3)c2c1)[C@@H]1CCN(CC(=O)N2CCN(c3ccc(-c4ncccn4)cc3)CC2)C1; conditions: max 5 µM
Procedure, shortened: as §1

AZD5363 = compound: C1CN(CCC1(C(=O)N[C@@H](CCO)C2=CC=C(C=C2)Cl)N)C3=NC=NC4=C3C=CN4 [AZD5363]; conditions: max 10 µM
Procedure, shortened: as §1

Taselisib = compound: Cc1nc(-c2cn3c(n2)-c2ccc(-c4cnn(C(C)(C)C(N)=O)c4)cc2OCC3)n(C(C)C)n1 [Taselisib]; conditions: max 10 µM
Procedure, shortened: as §1

Trametinib = compound: CC(=O)Nc1cccc(-n2c(=O)n(C3CC3)c(=O)c3c(Nc4ccc(I)cc4F)n(C)c(=O)c(C)c32)c1 [Trametinib]; conditions: max 1 µM
Procedure, shortened: as §1

SN-38 = compound: CCc1c2c(nc3ccc(O)cc13)-c1cc3c(c(=O)n1C2)COC(=O)[C@]3(O)CC [SN-38]; conditions: max 0.3 µM
Procedure, shortened: as §1

Savolitinib = compound: C[C@@H](c1ccc2nccn2c1)n1nnc2ncc(-c3cnn(C)c3)nc21 [Savolitinib]; conditions: max 1 µM
Procedure, shortened: as §1

AZD2811 = compound: CCN(CCO)CCCOc1ccc2c(Nc3cc(CC(=O)Nc4cccc(F)c4)[nH]n3)ncnc2c1 [AZD2811]; conditions: max 1 µM
Procedure, shortened: as §1

SRA737 = compound: N#Cc1cnc(Nc2cc(NC[C@H]3CNCCO3)c(C(F)(F)F)cn2)cn1 [SRA737]; conditions: max 10 µM
Procedure, shortened: as §1

MK-2206 = compound: NC1(c2ccc(-c3nc4ccn5c(=O)[nH]nc5c4cc3-c3ccccc3)cc2)CCC1 [MK-2206]; conditions: max 10 µM
Procedure, shortened: as §1

Gemcitabine = compound: Nc1ccn([C@@H]2O[C@H](CO)[C@@H](O)C2(F)F)c(=O)n1 [Gemcitabine]; conditions: max 0.3 µM
Procedure, shortened: as §1

AZD1390 = compound: CC(C)n1c(=O)n(C)c2cnc3cc(F)c(-c4ccc(OCCCN5CCCCC5)nc4)cc3c21 [AZD1390]; conditions: max 0.3 µM
Procedure, shortened: as §1

AZD5991 = compound: Cc1c2c(nn1C)CSCc1cc(n(C)n1)CSc1cc(c3ccccc3c1)OCCCc1c(C(=O)O)n(C)c3c-2c(Cl)ccc13 [AZD5991]; conditions: max 1 µM
Procedure, shortened: as §1

Gefitinib = compound: COc1cc2ncnc(Nc3ccc(F)c(Cl)c3)c2cc1OCCCN1CCOCC1 [Gefitinib]; conditions: max 10 µM
Procedure, shortened: as §1

AZD1775 = compound: C=CCn1c(=O)c2cnc(Nc3ccc(N4CCN(C)CC4)cc3)nc2n1-c1cccc(C(C)(C)O)n1 [AZD1775]; conditions: max 3 µM
Procedure, shortened: as §1

Olaparib = compound: O=C(c1cc(Cc2n[nH]c(=O)c3ccccc23)ccc1F)N1CCN(C(=O)C2CC2)CC1 [Olaparib]; conditions: max 10 µM
Procedure, shortened: as §1

AZD8186 = compound: C[C@@H](Nc1cc(F)cc(F)c1)c1cc(C(=O)N(C)C)cc2c(=O)cc(N3CCOCC3)oc12 [AZD8186]; conditions: max 10 µM
Procedure, shortened: as §1

Selumetinib = compound: Cn1cnc2c(F)c(Nc3ccc(Br)cc3Cl)c(C(=O)NOCCO)cc21 [Selumetinib]; conditions: max 10 µM
Procedure, shortened: as §1

Dasatinib = compound: CC1=C(C(=CC=C1)Cl)NC(=O)C2=CN=C(S2)NC3=CC(=NC(=N3)C)N4CCN(CC4)CCO [Dasatinib]; conditions: max 2 µM
Procedure, shortened: as §1

Paclitaxel = compound: CC(=O)O[C@H]1C(=O)[C@@]2(C)[C@H]([C@H](OC(=O)c3ccccc3)[C@]3(O)C[C@H](OC(=O)[C@H](O)[C@@H](NC(=O)c4ccccc4)c4ccccc4)C(C)=C1C3(C)C)[C@]1(OC(C)=O)CO[C@@H]1C[C@@H]2O [Paclitaxel]; conditions: max 3 µM
Procedure, shortened: as §1

Carboplatin = compound: C1CC(C1)(C(=O)[O-])C(=O)[O-].N.N.[Pt+2] [Carboplatin]; conditions: max 10 µM
Procedure, shortened: as §1

Lapatinib = compound: CS(=O)(=O)CCNCc1ccc(-c2ccc3ncnc(Nc4ccc(OCc5cccc(F)c5)c(Cl)c4)c3c2)o1 [Lapatinib]; conditions: max 10 µM
Procedure, shortened: as §1

Etoposide = compound: COc1cc([C@@H]2c3cc4c(cc3[C@@H](O[C@@H]3O[C@@H]5CO[C@@H](C)O[C@H]5[C@H](O)[C@H]3O)[C@H]3COC(=O)[C@H]23)OCO4)cc(OC)c1O [Etoposide]; conditions: max 10 µM
Procedure, shortened: as §1

5-Fluorouracil = compound: O=c1[nH]cc(F)c(=O)[nH]1 [5-Fluorouracil]; conditions: max 20 µM
Procedure, shortened: as §1

Alisertib = compound: COc1cc(Nc2ncc3c(n2)-c2ccc(Cl)cc2C(c2c(F)cccc2OC)=NC3)ccc1C(=O)O [Alisertib]; conditions: max 10 µM
Procedure, shortened: as §1

Prexasertib = compound: COc1cccc(OCCCN)c1-c1cc(Nc2cnc(C#N)cn2)n[nH]1 [Prexasertib]; conditions: max 1 µM
Procedure, shortened: as §1

| Cell Line | IC50, cell viability 72 h (Crizotinib) [nM] | IC50, cell viability 72 h (AZD5153) [nM] | IC50, cell viability 72 h (Palbociclib) [nM] | IC50, cell viability 72 h (AZD6738) [nM] | IC50, cell viability 72 h (AZD7648) [nM] | IC50, cell viability 72 h (AZD4320) [nM] | IC50, cell viability 72 h (Venetoclax) [nM] | IC50, cell viability 72 h (AZD0156) [nM] | IC50, cell viability 72 h [1] [nM] | IC50, cell viability 72 h (AZD5363) [nM] | IC50, cell viability 72 h (Taselisib) [nM] | IC50, cell viability 72 h (Trametinib) [nM] | IC50, cell viability 72 h (SN-38) [nM] | IC50, cell viability 72 h (Savolitinib) [nM] | IC50, cell viability 72 h (AZD2811) [nM] | IC50, cell viability 72 h (SRA737) [nM] | IC50, cell viability 72 h (MK-2206) [nM] | IC50, cell viability 72 h (Gemcitabine) [nM] | IC50, cell viability 72 h (AZD1390) [nM] | IC50, cell viability 72 h (AZD5991) [nM] | IC50, cell viability 72 h (Gefitinib) [nM] | IC50, cell viability 72 h (AZD1775) [nM] | IC50, cell viability 72 h (Olaparib) [nM] | IC50, cell viability 72 h (AZD8186) [nM] | IC50, cell viability 72 h (Selumetinib) [nM] | IC50, cell viability 72 h (Dasatinib) [nM] | IC50, cell viability 72 h (Paclitaxel) [nM] | IC50, cell viability 72 h (Carboplatin) [nM] | IC50, cell viability 72 h (Lapatinib) [nM] | IC50, cell viability 72 h (Etoposide) [nM] | IC50, cell viability 72 h (5-Fluorouracil) [nM] | IC50, cell viability 72 h (Alisertib) [nM] | IC50, cell viability 72 h (Prexasertib) [nM] |
| --- | --- | --- | --- | --- | --- | --- | --- | --- | --- | --- | --- | --- | --- | --- | --- | --- | --- | --- | --- | --- | --- | --- | --- | --- | --- | --- | --- | --- | --- | --- | --- | --- | --- |
| TC-YIK (Other Solid Carcinomas) | 2500 | 20.2 | > 10000 | 1930 | > 10000 | 57 | > 1000 | > 3000 | 2730 | > 10000 | > 10000 | 156 | 1.86 | > 1000 | 21.9 | 4370 | > 10000 | 31.3 | > 300 | > 1000 | > 10000 | 576 | > 10000 | > 10000 | 7130 | > 2000 | 4.02 | > 10000 | > 10000 | 1640 | > 20000 |  |  |
| FU-OV-1 (Ovarian Carcinoma) | > 10000 | 511 | > 10000 | > 10000 | > 10000 | > 1000 | > 1000 | > 3000 | 3800 | > 10000 | 1090 |  | > 300 | > 1000 | > 1000 | > 10000 | > 10000 | > 300 | > 300 | > 1000 | > 10000 | > 3000 | > 10000 | > 10000 | > 10000 | 1480 | > 3000 | > 10000 | > 10000 | > 10000 | > 20000 | > 10000 | 694 |
